From article PMC10771525 (Communications Biology, 2024)
Each block holds one molecule with its values, some of them ahead of it.

Tests used:
[1] = system: EDG2; experiment: GPCR panel (control), Arrestin, CHO-K1; type: cell-based, human; conditions: reference agonist
[2] = system: EDG4; experiment: GPCR panel (control), Arrestin, CHO-K1; type: cell-based, human; conditions: reference agonist
[3] = system: EDG7; experiment: GPCR panel (control), Arrestin, CHO-K1; type: cell-based, human; conditions: reference agonist
[4] = system: GPR92; experiment: GPCR panel (control), Arrestin, CHO-K1; type: cell-based, human; conditions: reference agonist
[5] = system: ADORA3; experiment: GPCR panel (control), Arrestin, CHO-K1; type: cell-based, human; conditions: reference agonist
[6] = system: HRH1; experiment: GPCR panel (control), Arrestin, CHO-K1; type: cell-based, human; conditions: reference agonist
[7] = system: GPR119; experiment: GPCR panel (control), Arrestin, U2OS; type: cell-based, human; conditions: reference agonist
[8] = molecular target: CRTH2 (Homo sapiens, UniProt Q9Y5Y4); experiment: GPCR panel (control), Arrestin, U2OS; type: cell-based; conditions: reference agonist
CRTH2, sequence (Q9Y5Y4 whole entry): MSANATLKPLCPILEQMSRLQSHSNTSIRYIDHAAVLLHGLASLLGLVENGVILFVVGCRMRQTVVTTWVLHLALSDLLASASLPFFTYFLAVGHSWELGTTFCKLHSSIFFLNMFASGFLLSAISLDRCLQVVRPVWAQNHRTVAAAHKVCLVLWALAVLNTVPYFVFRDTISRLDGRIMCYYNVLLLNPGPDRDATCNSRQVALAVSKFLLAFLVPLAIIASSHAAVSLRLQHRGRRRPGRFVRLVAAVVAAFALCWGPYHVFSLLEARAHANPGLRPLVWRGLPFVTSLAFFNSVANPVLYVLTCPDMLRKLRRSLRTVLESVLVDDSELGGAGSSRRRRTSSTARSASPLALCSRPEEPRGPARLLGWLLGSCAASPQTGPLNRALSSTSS

[9] = system: HRH3; experiment: GPCR panel (control), Arrestin, CHO-K1; type: cell-based, human; conditions: reference agonist
[10] = system: EDG1; experiment: GPCR panel (control), Arrestin, CHO-K1; type: cell-based, human; conditions: reference agonist
[11] = system: EDG3; experiment: GPCR panel (control), Arrestin, CHO-K1; type: cell-based, human; conditions: reference agonist
[12] = system: EDG5; experiment: GPCR panel (control), Arrestin, CHO-K1; type: cell-based, human; conditions: reference agonist
[13] = system: EDG6; experiment: GPCR panel (control), Arrestin, CHO-K1; type: cell-based, human; conditions: reference agonist
[14] = system: EDG8; experiment: GPCR panel (control), Arrestin, CHO-K1; type: cell-based, human; conditions: reference agonist
[15] = system: ADRA2A; conditions: reference agonist, CHO-K1, Arrestin
[16] = system: ADRA2C; conditions: reference agonist, CHO-K1, Arrestin
[17] = system: CCR2; experiment: GPCR panel (control), Arrestin, CHO-K1; type: cell-based, human; conditions: reference agonist
[18] = system: CCR5; experiment: GPCR panel (control), Arrestin, CHO-K1; type: cell-based, human; conditions: reference agonist
[19] = system: CCR3; experiment: GPCR panel (control), Arrestin, CHO-K1; type: cell-based, human; conditions: reference agonist
[20] = system: CCR7; experiment: GPCR panel (control), Arrestin, CHO-K1; type: cell-based, human; conditions: reference agonist
[21] = system: CCR6; experiment: GPCR panel (control), Arrestin, CHO-K1; type: cell-based, human; conditions: reference agonist
[22] = system: CXCR3; experiment: GPCR panel (control), Arrestin, CHO-K1; type: cell-based, human; conditions: reference agonist
[23] = system: CXCR5; experiment: GPCR panel (control), Arrestin, CHO-K1; type: cell-based, human; conditions: reference agonist
[24] = system: CMKLR1; experiment: GPCR panel (control), Arrestin, CHO-K1; type: cell-based, human; conditions: reference agonist
[25] = system: GPR1; experiment: GPCR panel (control), Arrestin, CHO-K1; type: cell-based, human; conditions: reference agonist
[26] = system: CXCR1; experiment: GPCR panel (control), Arrestin, U2OS; type: cell-based, human; conditions: reference agonist
[27] = system: CXCR2; experiment: GPCR panel (control), Arrestin, HEK-293; type: cell-based, human; conditions: reference agonist, CXCR2, HEK-293, Arrestin
[28] = system: CX3CR1; experiment: GPCR panel (control), Arrestin, CHO-K1; type: cell-based, human; conditions: reference agonist
[29] = system: CCR4; experiment: GPCR panel (control), Arrestin, CHO-K1; type: cell-based, human; conditions: reference agonist
[30] = system: XCR1; experiment: GPCR panel screening, cAMP assay, XCR1; type: cell-based, human; conditions: reference agonist, XCR1, CHO
Experimental: The chemokine receptor XCR1, coupled to Gαi, was tested in cAMP assays.
Screening the GPCRs panels was performed by DiscoverX (Eurofins) using β-arrestin recruitment assays unless otherwise indicated (for details, see Supplementary Data 2). […]
chemokine receptors (CCR1, CCR2, CCR3, CCR4, CCR5, CCR6, CCR7, CCR8, CCR9, CCR10, CXCR1, CXCR2, CXCR3, CXCR4, CXCR5, CXCR6, and CX3CR1) versus their corresponding agonist at their determined EC80 (see Supplementary Data 2). CXCL14 was preincubated for 30 min, then the standard agonist for the investigated receptor was added, followed by another incubation for 90 min without washing step in between. The chemokine receptor XCR1, coupled to Gαi, was tested in cAMP assays. The readout was relative luminescence units (RLU). The percentage of inhibition was calculated using the following formula: % Inhibition = 100% x (1 - (mean RLU of CXCL14- mean RLU of vehicle control) / (mean RLU of EC80 control - mean RLU of vehicle control)). For further details see Supplementary Data 2.
(1 picture or pasted object on this page, not shown here)

[31] = system: CCR8; experiment: GPCR panel (control), Arrestin, CHO-K1; type: cell-based, human; conditions: reference agonist
[32] = molecular target: MRGPRX2 fused to ProLink (PK), in CHO β-arrestin cells (human) (UniProt Q96LB1)
MRGPRX2 fused to ProLink (PK), in CHO β-arrestin cells (human), sequence (Q96LB1 whole entry, the tested form may be a part): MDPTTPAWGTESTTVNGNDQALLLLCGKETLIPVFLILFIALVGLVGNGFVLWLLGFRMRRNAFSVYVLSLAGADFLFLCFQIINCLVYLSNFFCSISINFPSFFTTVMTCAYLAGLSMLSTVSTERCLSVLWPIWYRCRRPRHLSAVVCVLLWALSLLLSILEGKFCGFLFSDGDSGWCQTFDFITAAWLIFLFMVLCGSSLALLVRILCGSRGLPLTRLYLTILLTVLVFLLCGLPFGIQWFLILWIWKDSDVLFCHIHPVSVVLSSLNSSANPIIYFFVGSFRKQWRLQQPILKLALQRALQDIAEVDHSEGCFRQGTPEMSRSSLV

[33] = molecular target: MRGPRX2 in the calcium mobilization assays of the small CXCL14 fragments and mutants (human) (UniProt Q96LB1)
MRGPRX2 in the calcium mobilization assays of the small CXCL14 fragments and mutants (human), sequence (Q96LB1 whole entry, change not shown, the tested form may be a part): as the sequence (Q96LB1 whole entry, the tested form may be a part) above

[34] = molecular target: MRGPRX2 fused to ProLink (PK), in CHO β-arrestin cells (human) (UniProt Q96LB1); remark: listed apart in the source
[35] = molecular target: MRGPRX2 in the calcium mobilization assays of the small CXCL14 fragments and mutants (human) (UniProt Q96LB1); remark: listed apart in the source
[36] = system: CCR10; experiment: GPCR panel (control), Arrestin, U2OS; type: cell-based, human; conditions: reference agonist
[37] = system: CXCR6; experiment: GPCR panel (control), Arrestin, HEK-293; type: cell-based, human; conditions: reference agonist, CXCR6, HEK-293, Arrestin
[38] = system: C5AR1; experiment: GPCR panel (control), Arrestin, CHO-K1; type: cell-based, human; conditions: reference agonist
[39] = system: C5LR2; experiment: GPCR panel (control), Arrestin, CHO-K1; type: cell-based, human; conditions: reference agonist

Molecule: CCCCCCCC/C=C\CCCCCCCC(=O)OCC(O)COP(=O)(O)O (centres unmarked) [1-Oleoyl-LPA]
EC50 [1]: 280 nM | EC80 [1]: 23000 nM | EC50 [2]: […] | EC80 [2]: […] | EC50 [3]: […] | EC80 [3]: […] | EC50 [4]: […] | EC80 [4]: […]

Molecule: CCL2
EC50 [17]: 3.1 nM | EC80 [17]: 200 nM

Molecule: CCL3
EC50 [18]: 7.2 nM | EC80 [18]: 310 nM

Molecule: CCL13
EC50 [19]: 8.8 nM | EC80 [19]: 210 nM

Molecule: CCL19
EC50 [20]: 9.5 nM | EC80 [20]: 230 nM

Molecule: CCL20
EC50 [21]: 6.2 nM | EC80 [21]: 710 nM

Molecule: CXCL11
EC50 [22]: 9.3 nM | EC80 [22]: 280 nM

Molecule: CXCL13
EC50 [23]: 24 nM | EC80 [23]: 1200 nM

B2: CCL22 (protein, UniProt O00626 25-93, looked up)
C-C motif chemokine 22: GPYGANMEDSVCCRDYVRYRLPLRVVKHFYWTSDSCPRPGVVLLTFRDKEICADPRVPWVKMILNKLSQ
EC50 [29]: 2.4 nM | EC80 [29]: 120 nM

B4: CCL1 (protein, UniProt P22362 24-96, looked up)
C-C motif chemokine 1: KSMQVPFSRCCFSFAEQEIPLRAILCYRNTSSICSNEGLIFKLKRGKEACALDTVGWVQRHRKMLRHCPSKRK
EC50 [31]: 40 nM | EC80 [31]: 1900 nM

B5: CXCL14(57-65) (peptide)
peptide: STKRFIKWY
Emax, β-arrestin recruitment at MRGPRX2, normalized to the maximal effect of CXCL14 [32]: 195% | Emax, calcium mobilization at MRGPRX2, normalized to the maximal effect of CXCL14 [33]: 170% | EC50, β-arrestin recruitment at MRGPRX2 [34]: 1960 nM | EC50, calcium mobilization at MRGPRX2 [35]: 301 nM

B6: CCL27 (protein, UniProt Q9Y4X3 25-112, looked up)
C-C motif chemokine 27: FLLPPSTACCTQLYRKPLSDKLLRKVIQVELQEADGDCHLQAFVLHLAQRSICIHPQNPSLSQWFEHQERKLHGTLPKLNFGMLRKMG
EC50 [36]: 65 nM | EC80 [36]: 1700 nM

Further lines, with some results ahead:

EC50 [6]: 48 nM
Molecule: CNCCc1cnc(CCC(c2ccccc2)c2ccccc2)[nH]1 [Methylhistaprodifen]
EC80 [6]: 11000 nM

EC50 [7]: 580 nM
Molecule: CCCCCCCC/C=C\CCCCCCCC(=O)NCCO [OEA]
EC80 [7]: 19000 nM

EC50 [8]: 21 nM | EC80 [8]: 1200 nM
Molecule: CCCCC[C@H](O)/C=C/[C@H]1C(=O)C[C@H](O)[C@@H]1C/C=C\CCCC(=O)O [Prostaglandin D2]

EC50 [10]: 53 nM | EC50 [11]: 190 nM | EC50 [12]: 260 nM | EC50 [13]: 110 nM | EC50 [14]: 26 nM
Molecule: CCCCCCCCCCCCC/C=C/[C@@H](O)[C@@H](N)COP(=O)(O)O [Sphingosine-1-phosphate]
EC80 [10]: 1300 nM | EC80 [11]: 5200 nM | EC80 [12]: 11000 nM | EC80 [13]: 4800 nM | EC80 [14]: 2400 nM

EC50 [24]: 1 nM | EC50 [25]: 7.3 nM
Molecule: Chemerin
EC80 [24]: 93 nM | EC80 [25]: 170 nM

EC50 [26]: 1.7 nM | EC50 [27]: 1.1 nM
Molecule: Interleukin-8
EC80 [26]: 300 nM | EC80 [27]: 230 nM

EC50 [28]: 0.13 nM
B1: Fractalkine (protein, UniProt P78423 25-397, looked up)
Fractalkine: QHHGVTKCNITCSKMTSKIPVALLIHYQQNQASCGKRAIILETRQHRLFCADPKEQWVKDAMQHLDRQAAALTRNGGTFEKQIGEVKPRTTPAAGGMDESVVLEPEATGESSSLEPTPSSQEAQRALGTSPELPTGVTGSSGTRLPPTPKAQDGGPVGTELFRVPPVSTAATWQSSAPHQPGPSLWAEAKTSEAPSTQDPSTQASTASSPAPEENAPSEGQRVWGQGQSPRPENSLEREEMGPVPAHTDAFQDWGPGSMAHVSVVPVSSEGTPSREPVASGSWTPKAEEPIHATMDPQRLGVLITPVPDAQAATRRQAVGLLAFLGLLFCLGVAMFTYQSLQGCPRKMAGEMAEGLRYIPRSCGSNSYVLVPV
EC80 [28]: 15 nM

EC50 [30]: 8.8 nM
B3: XCL1/Lymphotactin (protein, UniProt P47992 22-114, looked up)
Lymphotactin: VGSEVSDKRTCVSLTTQRLPVSRIKTYTITEGSLRAVIFITKRGLKVCADPQATWVRDVVRSMDRKSNTRNNMIQTKPTGTQQSTNTAVTLTG
EC80 [30]: 480 nM

EC50 [37]: 1.5 nM
B7: CXCL16 (protein, UniProt Q9H2A7 30-254, looked up)
C-X-C motif chemokine 16: NEGSVTGSCYCGKRISSDSPPSVQFMNRLRKHLRAYHRCLYYTRFQLLSWSVCGGNKDPWVQELMSCLDLKECGHAYSGIVAHQKHLLPTSPPISQASEGASSDIHTPAQMLLSTLQSTQRPTLPVGSLSSDKELTRPNETTIHTAGHSLAAGPEAGENQKQPEKNAGPTARTSATVPVLCLLAIIFILTAALSYVLCKRRRGQSPQSSPDLPVHYIPVAPDSNT
EC80 [37]: 130 nM

EC50 [38]: 1.3 nM | EC50 [39]: 2.2 nM
B8: Complement C5a (protein, UniProt P01031 678-751, looked up)
C5a anaphylatoxin: TLQKKIEEIAAKYKHSVVKKCCYDGACVNNDETCEQRAARISLGPRCIKAFTECCVVASQLRANISHKDMQLGR
modifications: C5a anaphylatoxin
EC80 [38]: 71 nM | EC80 [39]: 43 nM
